Here are results for four compounds from US20110189174A1, “COMPOSITIONS AND METHODS FOR TREATING, REDUCING, AMELIORATING, ALLEVIATING, OR INHIBITING PROGRESSION OF, PATHOGENIC OCULAR NEOVASCULARIZATION” (priority 2010, published 2011).

In data set [1] the test system is human retinal endothelial cells (HREC). The data set can be described thus: Testing 7: VEGF-induced HREC proliferation (MTS assay), integrin antagonists and Lucentis alone and in combination. The data set is classed as cell-based. The conditions noted are these: study II; compound 1 nM; Lucentis 1 ng/mL. On the procedure:
HREC were first cultured overnight in a 96-well plate coated with fibronectin. The next day medium containing different agents as shown in Tables 14 and 15 was pre-incubated for 1 hour before being added into appropriate wells. The cells were cultured at 37° C., 5% CO2, and 95% humidity for another 3 days. After that, cell proliferation was estimated by the MTS assay. In the first study we used VEGF 10 ng/mL (about EC80 in study PH08169), Lucentis® 1 ng/mL (about EC25 in study PH09038) and 5 doses of BOL-303055-X. Normal IgG (1 ng/ml) was also added to groups containing no Lucentis®. All groups contained the same amount of 0.1% DMSO. In the second study, all five compounds (BOL-303049-X, BOL-303050-X, BOL-303051-X, BOL-303054-X and BOL-303055-X) were tested at 1 nM with other conditions remaining the same.
A 96-well plate was coated with human fibronectin (10 μg/mL) for 5 hours at 37° C. HREC were washed with HBSS buffer once, tripsinized and re-suspended in 10% FBS CS-C medium at 18,000 cells/mL. Cells (200 μL) were added to the plate and cultured overnight at 37° C., 5% CO2, and 95% humidity. Next day, the cells were serum-starved for 2 hours.
For study I, VEGF at 10 ng/mL, Lucentis® at 1 ng/mL and BOL-303055-X at 0.1, 0.3, 1, 3 and 10 nM were prepared in 1% FBS CS medium as shown in Table 14. Normal IgG (1 ng/mL) were added to groups containing no Lucentis®. All medium solutions were incubated for 1 hour at 37° C. After carefully medium was aspirated, 200 μL of the medium containing different agents were then added into appropriate wells. The cells were cultured for another 3 days. For the study II as shown in the Table 15, five compounds were tested at 1 nM with other conditions remaining the same as study I.
At the end of incubation, the medium was carefully aspirated from cells and 120 μl of MTS working solution was added into all wells including blank wells (without cells). The plates were incubated at 37° C., 5% CO2, and 95% humidity for 1 hour and then read by a plate reader at 490 nm wavelength.
Median optical density (OD) was generated from different groups. Data were expressed as mean±SEM of the OD values. Statistical analysis was performed using three-way ANOVA after Box-Cox transformations, and p<0.05 was considered statistically significant. To evaluate whether the effects of the combinations were either synergistic or additive, net inhibitions were calculated by subtracting the basal levels in the presence of VEGF from the individual treatments (Lucentis® and Integrin blockers) and the combinations. […] Data analysis was performed utilizing the statistical analysis software JMP (SAS Institute, Cary, N.C.).
On the technique in general: Tetrazolium assays rely on reduction of a dye to a coloured formazan, in cell work by metabolically active cells.

A short description of data set [2]: Ocular clinical findings in rats 14 days after intravitreal injection. To be noted: for Intraocular inflammation and retinal vascular congestion: Day 14 after intravitreal injection.
Procedure: The anterior segment of the eye was examined using a slit-lamp biomicroscopy for excluding any animals with abnormalities that might interfere with the study. Fundus photography and fluorescein angiography (FA) were performed to document the health of the retina and the ocular circulation using a TRC 50EX fundus camera (Topcon). For FA, 10% sodium fluorescein was injected intravenously (50 mg/kg of body weight) through the tail vein or the vein under the incisor before the procedure.
Immediately after placement of laser photocoagulation, the experimental eyes received an intravitreal injection of either a compound or a vehicle as described in Table 5. Following the disinfection of ocular surface with 5% betadine and 0.9% saline solutions, the injections were performed with aid of a surgical microscope using 0.3 mL syringes with a 31-gauge ½-inch long needle (Ultra-Fine II™ Insulin syringe, BD, Franklin Lakes, N.J.).
Two weeks after photocoagulation, all rats were examined under anesthesia and pupil dilation with slit-lamp biomicroscopy, fundus photography and FA as described in the baseline examination.
The test system of data set [3] is human retinal endothelial cells (HREC). Briefly: PMA-induced HREC network formation in fibrin gel. The conditions noted are these: PMA 25 ng/mL, vs PMA control. The data set is classed as cell-based. On the procedure: Prior to the start of the experiment, HREC from Cell Systems were cultured in flask in CS-C complete medium. The tube formation assay was performed in a 96-well plate pre-coated with fibrin gel. HREC were collected from flasks and re-suspended 1% FBS EBM-2 medium. Cells were pre-incubated with the integrin antagonists, echistatin or vehicle control for 30 min before loading onto the fibrin gel. Images were taken at 9 h.
Thrombin solution and fibrinogen solutions were allowed to thaw at room temperature and 37° C. water bath, respectively. Fibrinogen solution at 30 μL was added into the desired number of wells in a 96-well plate. Plate was gently shaken to ensure uniform coverage of fibrinogen solution in the well. Thrombin at 20 μL was added into each well. The plate was gently shaken immediately to ensure the thrombin was mixed well with fibrinogen. The plate was placed at 37° C. overnight to allow the fibrin gel to polymerize.
HREC were trypsinized at about 80% confluence and counted by standard hemocytometer methods. After deactivating trypsin with 5 mL of 10% FBS EBM-2 medium, the cells were centrifuged (800 rpm, 8 min) and re-suspended at 2×10^5 cells/mL in 1% FBS EBM-2 medium
Cells were pre-incubated with integrin compounds or echistatin at 37° C., 5% CO2, and 95% humidity for 30 minutes before mixing with PMA medium. The final concentrations of all agents are shown in the design table. The 100 μL of the cell mixture was added onto the gel and cells were cultured at 37° C., 5% CO2, and 95% humidity. Images were taken at different time points.
The network formation scoring system (a five point-scale)
Each well in one group was given a score and then averaged. Data were expressed as mean±SEM of network formation scores. Statistical analysis was performed using a one-way ANOVA-Dunnett's test in raw data, and p<0.05 was considered statistically significant. Data analysis was performed using statistical analysis software JMP (SAS Institute, Cary, N.C.).

The subject of data set [4] is laser-induced CNV in rats. Briefly: Laser-induced choroidal neovascularization in rats (CNV area, fluorescein angiography grades). The data set is classed as in vivo, Brown Norway rats. To be noted: day 14, 200 μg/eye (echistatin 5 μg, Avastin 125 μg); for Number of lesions in FA grade 1 / Number of lesions in FA grade 2 / Number of lesions in FA grade 3 / Number of lesions in FA grade 4: unobstructed lesions. As to the method:
Fifty six male Brown Norway rats, approximately 200-300 grams of body weight and two months of age, were used in this study. This study was performed in two cohorts and only one eye of each rat was used.
The pupils were dilated and then the rats were anesthetized as described in baseline examination. The rats were positioned in front of a slit lamp system (Haag-Streit USA, Mason, Ohio). […] A diode laser (OcuLight TX, IRIDEX, Mountain View, Calif.) was used for photocoagulation (532 nm wavelength, 120 mW power, 50 μm spot size and 0.05 seconds duration). For each right eye, a series of six photocoagulation sites were concentrically placed between the major retinal vessels at equal distance (about two optic discs) around the optic nerve head. […] If a significant retinal or subretinal hemorrhage occurred during the laser photocoagulation, then the left eye was be photocoagulated and used as the experimental eye.
Grade 1 lesions had no hyperfluorescence.
The eyes were collected on day 14 and immediately fixed in 4% paraformaldehyde in PBS (pH 7.4) for one and half hours, and then transferred into cold PBS and kept at 4° C. for further processing.
The incubation was performed in a humidified dark chamber with gentle rotation at 4° C. overnight. On the second day, the retinal pigment epithelium (RPE)-choroidsclera complexes were washed with cold IHC buffer, mounted with ProLong® Gold antifade reagent, covered with circular cover glass, and sealed with clear nail polish. Fluorescent images were collected with a confocal microscope (FluoView FV 1000 confocal microscope, Olympus, Center Valley, Pa.) and a 4×, 0.16 numerical aperture objective lens. […] The laser sites were identified by merging images of the green (phalloidin labeling RPE) and the red (isolectin IB4 labeling CNV) channels. CNV complexes were identified using the red channel (isolectin), and their areas were quantified using the FluoView software (Version 1.7a).
Average FA scores and areas of CNV complexes in each group were presented as mean±SEM, unless otherwise indicated. They were analyzed using a one-way ANOVA followed by a Tukey-Kramer test after Box-Cox transformations. All statistics were performed utilizing the statistical analysis software JMP (SAS Institute, Cary, N.C.). p values ≦0.05 were considered statistically significant.

The test system of data set [5] is human retinal endothelial cells (HREC). Briefly: Testing 5: VEGF-induced HREC proliferation (MTS assay), echistatin and Avastin alone and in combination. The data set is classed as cell-based. To be noted: echistatin 2 nM. As to the method:
HREC were first cultured overnight in a 96-well plate coated with fibronectin. The next day, cells were serum-starved for 2 h before treatment. Medium containing different agents as shown in table below was pre-incubated for 1 h before being added to cells. The cells were cultured at 37° C., 5% CO2, and 95% humidity for another 3 days. After that, cell proliferation was estimated by the MTS assay. […] Normal human IgG was also added to different groups in such a way that all groups contained the same amounts of IgG protein.
A 96-well plate was coated with human fibronectin (10 μg/mL) for 5 hours. HREC were collected from flasks by EDTA-trypsin treatment and re-suspended in 10% FBS CS-C medium at 15,000 cells/mL. Cells (200 μL) were added to the plate and cultured overnight at 37° C., 5% CO2, and 95% humidity. Next day, the medium was removed and 200 μl/well serum free medium was added.
All medium solutions were incubated for 1 h at 37° C. After carefully aspirating the medium from cells, […], of the medium containing the different agents was added into appropriate wells. The cells were cultured for another 3 days.
At the end of incubation, the medium was carefully aspirated from cells and 120 μl of MTS working solution was added into all wells including blank wells (without cells). The plate was incubated at 37° C., 5% CO2, and 95% humidity for 1 hour and then absorbance was read by a plate reader at 490 nm wavelength.
Median optical density (OD) was generated from different groups. Data were expressed as mean±SEM of the OD values. Statistical analysis was performed using a one or two-way ANOVA using Box-Cox transformed data if needed, and P<0.05 was considered statistically significant. […] All the data from the individual wells were fitted to a re-parameterized four-parameter logistic equation to obtain IC50 using similar methodology as that previously described and utilizing the statistical analysis software JMP (SAS Institute, Cary, N.C.).

[6] abbreviates: Day 14, 200 μg/eye intravitreal.
The mark [7] stands for this setting: one intravitreal injection after laser.

Take `COc1ccc(CCOC(=O)N[C@@H](CNc2nc(C)nc(N3CCC(c4ccc5c(n4)NCCC5)CC3)c2C)C(=O)O)cc1` [BOL-303049-X]: the “Combination effect with Lucentis on VEGF-induced HREC proliferation (synergistic/additive)” value in data set [1] is listed as “synergistic effect”. In data set [2] (setting [6]), the “Eyes with anterior chamber inflammation/Total eyes” value is on record as 6/6, the “Eyes with retinal vascular congestion/vessel-observable eyes” value was 1/1 and the “Posterior synechiae of iris” value is given as “Posterior synechiae of iris occurred in several eyes”. Moreover, the “Intraocular inflammation and retinal vascular congestion” value in data set [2] was “most severe inflammation”. In addition, the “Inhibition of PMA-induced HREC network formation in fibrin gel” value (shortened to “Inhibition … in fibrin gel”) in data set [3] (1 nM) is “significantly inhibited”. In addition, in data set [3] (10 nM), the “Inhibition … in fibrin gel” value is reported as “significantly inhibited”. Also, in data set [4], the “Number of lesions in FA grade 1” value came to 0, the “Number of lesions in FA grade 2” value amounted to 0, the “Number of lesions in FA grade 3” value came to 0 and the “Number of lesions in FA grade 4” value turned out to be 0.

Consider `Cc1nc(NC[C@H](NC(=O)OCC2CCCCC2)C(=O)O)c(C)c(N2CCC(c3ccc4c(n3)NCCC4)CC2)n1` [BOL-303051-X], for which the “Combination effect with Lucentis on VEGF-induced HREC proliferation (synergistic/additive)” value in data set [1] is on record as “additive effects”. For the same compound, in data set [2] (setting [6]), the “Eyes with anterior chamber inflammation/Total eyes” value was 3/6 and the “Eyes with retinal vascular congestion/vessel-observable eyes” value is on record as 0/4. In addition, the “Inhibition … in fibrin gel” value in data set [3] (1 nM) is on record as “significantly inhibited”. In data set [3] (10 nM), the “Inhibition … in fibrin gel” value is “significantly inhibited”. For the same compound, in data set [4] (setting [7]), the “Mean score of fluorescein leakage (FA score) compared to vehicle-treated controls” value is on record as “smaller means”. In data set [4], the “Number of lesions in FA grade 1” value was 2, the “Number of lesions in FA grade 2” value was 3, the “Number of lesions in FA grade 3” value worked out at 9 and the “Number of lesions in FA grade 4” value stood at 10.

For `CC1(C)O[C@@H]2C[C@H]3[C@@H]4CCC5=CC(=O)C=C[C@]5(C)[C@@]4(F)[C@@H](O)C[C@]3(C)[C@]2(C(=O)CO)O1` [TA, triamcinolone acetonide, reference compound], in data set [2], the “Intraocular inflammation and retinal vascular congestion” value is “no intraocular inflammation and retinal vascular congestion was recorded”. In addition, in data set [4], the “Number of lesions in FA grade 1” value was determined as 3, the “Number of lesions in FA grade 2” value turned out to be 11, the “Number of lesions in FA grade 3” value came out at 4 and the “Number of lesions in FA grade 4” value came out at 0.

For Echistatin [reference compound], in data set [5], the “Enhancement of Avastin potency” value was “approximately 1.6 fold”. Further, the “Inhibition of VEGF-induced HREC proliferation, agent alone” value in data set [5] (Avastin 0.625-10 ng/ml (significant at 10 ng/ml), VEGF 10 ng/mL) was “not statistically significant”. In addition, the “HREC proliferation under basal conditions” value in data set [5] (Avastin 0.625-10 ng/ml, no VEGF) is “significantly inhibited”. Besides, the “Combination effect with Avastin on VEGF-induced HREC proliferation (synergistic/additive)” value in data set [5] (Avastin 0.625 to 10 ng/ml) is “additive effects”. In addition, the “Cataract formation” value in data set [2] (Day 14, echistatin 5 μg/eye intravitreal) was “Two eyes treated with echistatin developed cataract”. The “Intraocular inflammation and retinal vascular congestion” value in data set [2] is “no intraocular inflammation and retinal vascular congestion was recorded”. Besides, the “Inhibition … in fibrin gel” value in data set [3] (10 nM) is “significantly inhibited”. In data set [4] (setting [7]), the “CNV area / development of CNV on isolectin IB4-labeled flat mounts compared to vehicle-treated controls” value is given as “smaller area of CNV” and the “Mean score of fluorescein leakage (FA score) compared to vehicle-treated controls” value is on record as “smaller means”. Also, in data set [4], the “Number of lesions in FA grade 1” value is 0, the “Number of lesions in FA grade 2” value was 12, the “Number of lesions in FA grade 3” value came to 3 and the “Number of lesions in FA grade 4” value worked out at 2.
